Assay results: patent publication US9073940B2, “Tricyclic pyrazol amine derivatives” (MERCK SERONO SA, priority 2009, dated 2015)

System: 4 PI3K isoforms (Human recombinant GST-PI3K)
Assay: PI3K scintillation proximity assay, best IC50 obtained with the four isoforms (alpha, beta, delta, gamma)
Format: biochemical
Conditions: for IC50: best IC50 obtained with the four isoforms of PI3K, read-out: Best potency measured on the 4 PI3K isoforms; for Best potency measured on the 4 PI3K isoforms, % inh @20 μM: inhibition at 20 μM

Row | SMILES | IC50 [nM] | Best potency measured on the 4 PI3K isoforms, % inh @20 μM
1 | O=C(c1nn(-c2ccccc2Br)c2c1CS(=O)(=O)c1ccccc1-2)N1CCOCC1 [Example 20, 1-(2-bromophenyl)-3-(morpholin-4-ylcarbonyl)-1,4-dihydrothiochromeno[4,3-c]pyrazole 5,5-dioxide] | 5500 | –
2 | O=C(c1nn(-c2ccccc2F)c2c1CS(=O)(=O)c1ccccc1-2)N1CCOCC1 [Example 21, 1-(2-fluorophenyl)-3-(morpholin-4-ylcarbonyl)-1,4-dihydrothiochromeno[4,3-c]pyrazole 5,5-dioxide] | 2000 | –
3 | O=C(c1nn(-c2ccccc2Cl)c2c1CS(=O)(=O)c1ccccc1-2)N1CCOCC1 [Example 22, 1-(2-chlorophenyl)-3-(morpholin-4-ylcarbonyl)-1,4-dihydrothiochromeno[4,3-c]pyrazole 5,5-dioxide] | 4020 | –
4 | O=C(c1nn(-c2ccc3c(c2)OCCO3)c2c1CS(=O)(=O)c1ccccc1-2)N1CCOCC1 [Example 23, 1-(2,3-dihydro-1,4-benzodioxin-6-yl)-3-(morpholin-4-ylcarbonyl)-1,4-dihydrothiochromeno[4,3-c]pyrazole 5,5-dioxide] | 670 | –
5 | Cc1nc2ccc(-n3nc(C(=O)N4CCOCC4)c4c3-c3ccccc3S(=O)(=O)C4)cc2s1 [Example 24, 1-(2-methyl-1,3-benzothiazol-6-yl)-3-(morpholin-4-ylcarbonyl)-1,4-dihydrothiochromeno[4,3-c]pyrazole 5,5-dioxide] | 662 | –
6 | O=C(c1nn(-c2cccc(Br)c2)c2c1CS(=O)(=O)c1ccccc1-2)N1CCOCC1 [Example 25, 1-(3-bromophenyl)-3-(morpholin-4-ylcarbonyl)-1,4-dihydrothiochromeno[4,3-c]pyrazole 5,5-dioxide] | 616 | –
7 | O=C(c1nn(-c2cccc(Cl)c2)c2c1CS(=O)(=O)c1ccccc1-2)N1CCOCC1 [Example 26, 1-(3-chlorophenyl)-3-(morpholin-4-ylcarbonyl)-1,4-dihydrothiochromeno[4,3-c]pyrazole 5,5-dioxide] | 440 | –
8 | O=C(c1nn(-c2ccc(Br)cc2)c2c1CS(=O)(=O)c1ccccc1-2)N1CCOCC1 [Example 27, 1-(4-bromophenyl)-3-(morpholin-4-ylcarbonyl)-1,4-dihydrothiochromeno[4,3-c]pyrazole 5,5-dioxide] | 1120 | –
9 | O=C(c1nn(-c2ccc(F)cc2)c2c1CS(=O)(=O)c1ccccc1-2)N1CCOCC1 [Example 28, 1-(4-fluorophenyl)-3-(morpholin-4-ylcarbonyl)-1,4-dihydrothiochromeno[4,3-c]pyrazole 5,5-dioxide] | 373 | –
10 | O=C(c1nn(-c2ccc(Cl)cc2)c2c1CS(=O)(=O)c1ccccc1-2)N1CCOCC1 [Example 29, 1-(4-chlorophenyl)-3-(morpholin-4-ylcarbonyl)-1,4-dihydrothiochromeno[4,3-c]pyrazole 5,5-dioxide] | 895 | –
11 | CC(C)c1ccc(-n2nc(C(=O)N3CCOCC3)c3c2-c2ccccc2S(=O)(=O)C3)cc1 [Example 30, 1-(4-isopropylphenyl)-3-(morpholin-4-ylcarbonyl)-1,4-dihydrothiochromeno[4,3-c]pyrazole 5,5-dioxide] | 1470 | –
12 | Cc1ccncc1-n1nc(C(=O)N2CCOCC2)c2c1-c1ccccc1S(=O)(=O)C2 [Example 31, 1-(4-methylpyridin-3-yl)-3-(morpholin-4-ylcarbonyl)-1,4-dihydrothiochromeno[4,3-c]pyrazole 5,5-dioxide] | 4040 | –
13 | O=C(c1nn(C2CCOCC2)c2c1CS(=O)(=O)c1ccccc1-2)N1CCOCC1 [Example 32, 3-(morpholin-4-ylcarbonyl)-1-(tetrahydro-2H-pyran-4-yl)-1,4-dihydrothiochromeno[4,3-c]pyrazole 5,5-dioxide] | 223 | –
14 | Cn1nc(C(=O)N2CCOCC2)c2c1-c1cc([N+](=O)[O-])ccc1S(=O)(=O)C2 [Example 35, 1-methyl-3-(morpholin-4-ylcarbonyl)-8-nitro-1,4-dihydrothiochromeno[4,3-c]pyrazole 5,5-dioxide] | 2770 | –
15 | O=C(c1nn(-c2ccccc2)c2c1CS(=O)(=O)c1ccc([N+](=O)[O-])cc1-2)N1CCOCC1 [Example 36, 3-(morpholin-4-ylcarbonyl)-8-nitro-1-phenyl-1,4-dihydrothiochromeno[4,3-c]pyrazole 5,5-dioxide] | 1830 | –
16 | O=C(c1nn(Cc2ccccc2)c2c1CS(=O)(=O)c1ccccc1-2)N1CCOCC1 [Example 40, 1-benzyl-3-(morpholin-4-ylcarbonyl)-1,4-dihydrothiochromeno[4,3-c]pyrazole 5,5-dioxide] | 1190 | –
17 | O=C(c1nn(CCc2ccccc2)c2c1CS(=O)(=O)c1ccccc1-2)N1CCOCC1 [Example 41, 3-(morpholin-4-ylcarbonyl)-1-(2-phenylethyl)-1,4-dihydrothiochromeno[4,3-c]pyrazole 5,5-dioxide] | 1440 | –
18 | CN(C)CCn1nc(C(=O)N2CCOCC2)c2c1-c1ccccc1S(=O)(=O)C2 [Example 42, N,N-dimethyl-2-[3-(morpholin-4-ylcarbonyl)-5,5-dioxidothiochromeno[4,3-c]pyrazol-1(4H)-yl]ethanamine] | 1500 | –
19 | COCCCn1nc(C(=O)N2CCOCC2)c2c1-c1ccccc1S(=O)(=O)C2 [Example 44, 1-(3-methoxypropyl)-3-(morpholin-4-ylcarbonyl)-1,4-dihydrothiochromeno[4,3-c]pyrazole 5,5-dioxide] | 907 | –

Row | SMILES | IC50 [nM] | Best potency measured on the 4 PI3K isoforms, % inh @20 μM
20 | O=C(c1nn(CC2CCCO2)c2c1CS(=O)(=O)c1ccccc1-2)N1CCOCC1 (centres unmarked) [Example 45, 3-(morpholin-4-ylcarbonyl)-1-(tetrahydrofuran-2-ylmethyl)-1,4-dihydrothiochromeno[4,3-c]pyrazole 5,5-dioxide] | 1560 | –
21 | O=C(c1nn(Cc2ccccn2)c2c1CS(=O)(=O)c1ccccc1-2)N1CCOCC1 [Example 47, 3-(morpholin-4-ylcarbonyl)-1-(pyridin-2-ylmethyl)-1,4-dihydrothiochromeno[4,3-c]pyrazole 5,5-dioxide] | 3960 | –
22 | CC(C)Cn1nc(C(=O)N2CCOCC2)c2c1-c1ccccc1S(=O)(=O)C2 [Example 50, 1-isobutyl-3-(morpholin-4-ylcarbonyl)-1,4-dihydrothiochromeno[4,3-c]pyrazole 5,5-dioxide] | 960 | –
23 | O=C(c1nn(CC2CCCCC2)c2c1CS(=O)(=O)c1ccccc1-2)N1CCOCC1 [Example 51, 1-(cyclohexylmethyl)-3-(morpholin-4-ylcarbonyl)-1,4-dihydrothiochromeno[4,3-c]pyrazole 5,5-dioxide] | 509 | –
24 | O=C(c1nn(CC2CCOCC2)c2c1CS(=O)(=O)c1ccccc1-2)N1CCOCC1 [Example 52, 3-(morpholin-4-ylcarbonyl)-1-(tetrahydro-2H-pyran-4-ylmethyl)-1,4-dihydrothiochromeno[4,3-c]pyrazole 5,5-dioxide] | 789 | –
25 | COCCn1nc(C(=O)N2CCOCC2)c2c1-c1ccccc1S(=O)(=O)C2 [Example 53, 1-(2-methoxyethyl)-3-(morpholin-4-ylcarbonyl)-1,4-dihydrothiochromeno[4,3-c]pyrazole 5,5-dioxide] | 1290 | –
26 | O=C(c1nn(CCCO)c2c1CS(=O)(=O)c1ccccc1-2)N1CCOCC1 [Example 54, 3-[3-(morpholin-4-ylcarbonyl)-5,5-dioxidothiochromeno[4,3-c]pyrazol-1(4H)-yl]propan-1-ol] | 2250 | –
27 | O=C(c1nn(CCc2ccccn2)c2c1CS(=O)(=O)c1ccccc1-2)N1CCOCC1 [Example 55, 3-(morpholin-4-ylcarbonyl)-1-(2-pyridin-2-ylethyl)-1,4-dihydrothiochromeno[4,3-c]pyrazole 5,5-dioxide] | 1920 | –
28 | O=C(c1nn(-c2ccccc2)c2c1C(Cc1ccccc1)S(=O)(=O)c1ccccc1-2)N1CCOCC1 (centres unmarked) [Example 57, 4-benzyl-3-(morpholin-4-ylcarbonyl)-1-phenyl-1,4-dihydrothiochromeno[4,3-c]pyrazole 5,5-dioxide] | 2480 | –
29 | O=C(c1nn(-c2ccccc2)c2c1C(CC1CC1)S(=O)(=O)c1ccccc1-2)N1CCOCC1 (centres unmarked) [Example 58, 4-(cyclopropylmethyl)-3-(morpholin-4-ylcarbonyl)-1-phenyl-1,4-dihydrothiochromeno[4,3-c]pyrazole 5,5-dioxide] | 3900 | –
30 | CCC1c2c(C(=O)N3CCOCC3)nn(-c3ccccc3)c2-c2ccccc2S1(=O)=O (centres unmarked) [Example 59, 4-ethyl-3-(morpholin-4-ylcarbonyl)-1-phenyl-1,4-dihydrothiochromeno[4,3-c]pyrazole 5,5-dioxide] | 2470 | –
31 | CC1(C)c2c(C(=O)N3CCOCC3)nn(-c3ccccc3)c2-c2ccccc2S1(=O)=O [Example 60, 4,4-dimethyl-3-(morpholin-4-ylcarbonyl)-1-phenyl-1,4-dihydrothiochromeno[4,3-c]pyrazole 5,5-dioxide] | – | 52% in @20 μM
32 | O=C(c1cccc(-n2nc(C(=O)N3CCOCC3)c3c2-c2ccccc2S(=O)(=O)C3)c1)N1CCOCC1 [Example 61, 3-(Morpholin-4-ylcarbonyl)-1-[3-(morpholin-4-ylcarbonyl)phenyl]-1,4-dihydrothiochromeno[4,3-c]pyrazole 5,5-dioxide] | 73 | –
33 | NC(=O)c1cccc(-n2nc(C(=O)N3CCOCC3)c3c2-c2ccccc2S(=O)(=O)C3)c1 [Example 62, 3-[3-(Morpholin-4-ylcarbonyl)-5,5-dioxidothiochromeno[4,3-c]pyrazol-1(4H)-yl]benzamide] | 957 | –
34 | Cn1nc(C(=O)N2CCOCC2)c2c1-c1cc(Br)ccc1S(=O)(=O)C2 [Example 63] | 1040 | –
35 | O=C(c1nn(-c2ccccc2)c2c1CS(=O)(=O)c1ccc(Br)cc1-2)N1CCOCC1 [Example 64] | 1300 | –
36 | COc1cc(OC)cc(-n2nc(C(=O)N3CCOCC3)c3c2-c2ccccc2S(=O)(=O)C3)c1 [Example 67] | – | 54% inh @20 μM
37 | N#Cc1cccc(-n2nc(C(=O)N3CCOCC3)c3c2-c2ccccc2S(=O)(=O)C3)c1 [Example 68] | 376 | –
38 | CN(C)CCCn1nc(C(=O)N2CCOCC2)c2c1-c1ccccc1S(=O)(=O)C2 [Example 69, N,N-Dimethyl-3-[3-(morpholin-4-ylcarbonyl)-5,5-dioxidothiochromeno[4,3-c]pyrazol-1(4H)-yl]propan-1-amine] | 3110 | –
